Experimental data taken from article PMC10895676, “Antiviral Activity of Lipophilic Nucleoside Tetraphosphate Compounds” (Journal of Medicinal Chemistry, 2024).
“Also recorded” adds a separate entry of the source.

Molecular target: T1, human DNA polymerase α (Homo sapiens, UniProt P09884)
T1 construct: purchased Chimerx
T1 sequence (P09884 1-1462): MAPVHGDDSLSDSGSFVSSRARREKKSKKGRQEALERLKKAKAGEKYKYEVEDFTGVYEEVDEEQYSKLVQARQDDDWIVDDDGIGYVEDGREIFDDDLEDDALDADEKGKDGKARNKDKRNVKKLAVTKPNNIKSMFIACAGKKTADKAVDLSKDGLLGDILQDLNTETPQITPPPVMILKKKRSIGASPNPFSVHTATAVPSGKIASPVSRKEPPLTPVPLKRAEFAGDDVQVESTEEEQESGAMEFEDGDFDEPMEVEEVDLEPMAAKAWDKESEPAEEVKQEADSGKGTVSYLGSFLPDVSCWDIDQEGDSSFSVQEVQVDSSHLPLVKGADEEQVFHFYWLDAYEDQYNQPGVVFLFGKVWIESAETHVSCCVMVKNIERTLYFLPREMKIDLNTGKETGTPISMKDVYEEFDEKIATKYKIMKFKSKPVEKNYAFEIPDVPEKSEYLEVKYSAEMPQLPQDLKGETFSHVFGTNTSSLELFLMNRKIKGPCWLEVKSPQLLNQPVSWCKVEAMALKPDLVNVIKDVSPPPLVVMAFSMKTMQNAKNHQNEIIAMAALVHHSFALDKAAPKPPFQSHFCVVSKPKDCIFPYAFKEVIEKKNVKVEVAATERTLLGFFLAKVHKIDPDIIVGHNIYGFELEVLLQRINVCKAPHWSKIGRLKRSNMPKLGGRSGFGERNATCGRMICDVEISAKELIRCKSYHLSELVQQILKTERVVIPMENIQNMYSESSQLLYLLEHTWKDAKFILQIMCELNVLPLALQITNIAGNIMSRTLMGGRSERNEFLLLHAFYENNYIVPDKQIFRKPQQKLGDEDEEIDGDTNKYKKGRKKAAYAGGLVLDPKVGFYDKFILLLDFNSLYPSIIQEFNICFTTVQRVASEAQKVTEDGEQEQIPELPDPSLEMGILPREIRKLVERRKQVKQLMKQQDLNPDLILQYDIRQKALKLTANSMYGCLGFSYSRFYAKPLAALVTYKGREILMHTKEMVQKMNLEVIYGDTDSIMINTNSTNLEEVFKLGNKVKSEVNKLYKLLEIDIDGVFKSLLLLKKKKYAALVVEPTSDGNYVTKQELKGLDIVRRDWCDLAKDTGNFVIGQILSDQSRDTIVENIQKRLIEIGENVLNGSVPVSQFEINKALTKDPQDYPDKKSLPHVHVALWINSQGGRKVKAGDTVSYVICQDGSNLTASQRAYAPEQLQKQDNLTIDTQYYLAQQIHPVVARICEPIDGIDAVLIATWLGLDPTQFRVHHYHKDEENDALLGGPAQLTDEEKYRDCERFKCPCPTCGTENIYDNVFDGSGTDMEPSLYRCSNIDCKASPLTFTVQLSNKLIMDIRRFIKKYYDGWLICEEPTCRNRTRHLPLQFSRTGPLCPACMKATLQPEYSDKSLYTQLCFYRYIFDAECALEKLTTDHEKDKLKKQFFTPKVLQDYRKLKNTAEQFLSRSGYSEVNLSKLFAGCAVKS
Assay: Primer extension assay using human DNA polymerase α
Type: biochemical
Conditions: 60 min, 2 U, 37 °C
Source text: Encouraged by the previously obtained results that γ-phosphate-modified-d4TDPs 3, γ-monoalkylated d4TTP derivatives as well as d4TDP were accepted as substrates by HIV-RT,[49],[50],[55],[59]−[61] δ-dialkylated d4T tetraphosphate analogues 4,5, δ-monoalkylated d4T tetraphosphate analogues 20 and 24 and d4T4P were investigated in primer extension assays in the presence of HIV-RT or the three different human DNA polymerases α, β and γ. D4TTP (for the compounds 4–9) and the natural thymidine triphosphate (TTP) were used as reference compounds.
Figure 6 Primer extension assay using HIV-RT (A), human polymerases α (B), β (C), and γ (D). (Figure 6A). Primer extension assay using HIV-RT (30 min, 6U). Lane 1: (+) dATP, dCTP, dGTP, and TTP with HIV-RT. Lane 2: (−) dATP, dCTP, dGTP, and TTP without HIV-RT. Lane 3: TTP. […] Lane 5: δ-(C4; C18)-d4T4P 4d. […] Lane 7: δ-(C18)-d4T4P 20. Lane 8: δ-C-(C18)-d4T4P 24. Lane 9: d4T4P. Lane 10: d4TTP. Lane 11: d4TDP. HIV-RT assay reaction conditions: 50 mM Tris–HCl (pH 8.6), 10 mM MgCl2, 40 mM KCl, 250 μM dNTPs, HIV-RT (6 U), 0.20 μM DNA hybrid, primer-template-hybrid 0.32 mM in a reaction volume of 10 μL, incubated at 37 °C for 0.5 h, 80 °C for 7 min. Primer extension assays: 50 mA, 45 w for 4 h. (Figure 6B). For human DNA polymerase α assay (60 min, 2 U): Lane 1: (+) dATP, dCTP, dGTP, and TTP with human polymerase α. Lane 2: (−) dATP, dCTP, dGTP, and TTP without human polymerase α. Lane 3: TTP. […] Lane 5: δ-(C4; C18)-d4T4P 4d. […] Lane 7: δ-(C18)-d4T4P 20. Lane 8: δ-C-(C18)-d4T4P 24. Lane 9: d4T4P. Lane 10: d4TTP. Human DNA polymerase α assay conditions: 60 mM Tris–HCl (pH 8), 5 mM Mg(OAc)2, 100 mM KCl, 1.0 mM dithiothreitol, 0.1 mM spermine, 0.01% (w/v) bovine serum albumin, 250 μM dNTPs, 2 U human polymerase α, 0.20 μM DNA hybrid, and primer-template-hybrid 0.32 mM in a reaction volume of 10 μL, incubated at 37 °C for 1 h, 80 °C for 7 min. Primer extension assays: 50 mA, 45 w for 3 h. (Figure 6C). For human DNA polymerase β assay (60 min, 2 U): Lane 1: (+) dATP, dCTP, dGTP, and TTP with human polymerase β. […]

Structure (SMILES)	substrate for human DNA polymerase α (primer extension)
CCCCCCCCCCCCCCCCCCOP(=O)(O)OP(=O)(O)OP(=O)(O)OP(=O)(O)OC[C@@H]1C=C[C@H](n2cc(C)c(=O)[nH]c2=O)O1 [compound 20, δ-(Alkyl-C18)-d4T4P]	nonsubstrates
CCCCCCCCCCCCCCCCCCP(=O)(O)OP(=O)(O)OP(=O)(O)OP(=O)(O)OC[C@@H]1C=C[C@H](n2cc(C)c(=O)[nH]c2=O)O1 [compound 24, δ-C-(Alkyl-C18)-d4T4P]	nonsubstrates
Cc1cn([C@H]2C=C[C@@H](COP(=O)(O)OP(=O)(O)OP(=O)(O)OP(=O)(O)O)O2)c(=O)[nH]c1=O [d4T4P, 2′,3′-didehydro-2′,3′-dideoxythymidine-5′-tetraphosphate]	nonsubstrates; also recorded: not a substrate
